# In patent US20070078207A1, “Stabilizer cyanoacrylate formulations” (priority 2005, published 2007):
# System: L5178Y TK^±
# Test: Mouse lymphoma screening study, mutation assay without activation (protocol 431ICH1 edition 3)
# Type: cell-based
# Description: In order to determine mutagenic activity for cyanoacrylate compositions containing hydroquinone, a mouse lymphoma screening study was conducted according to methods known in the art. The assay protocol used was 431ICH1 edition 3 (L5178Y TK^±) and was conducted by Covance, Inc. The amount of radical stabilizer in each of the cyanoacrylate compositions was varied. The selective agent was 3.0 μg/ml 5-trifluorothymidine (TFT).
structure (smiles),measurement,setting,value
"Oc1ccc(O)cc1 [HQ in saline, hydroquinone]",mutagenic activity,"result in words, mutagenic activity defined as 124.1×10E-6 units",does not exhibit mutagenicity
same,Cumulative RSG,"without activation, Relative to Vehicle Control (%)",2.0%
same,Daily Cell Counts Day 2,"without activation, footnote g = not subcultured","0.9^g Cell/ML, 10E5 units"
same,Daily Cell Counts Day 1,"without activation, selective agent 3.0 μg/ml TFT","0.5 Cell/ML, 10E5 units"
